Measured values taken from US20190302100A1, “METHOD FOR PREPARING LIVER PROGENITOR CELLS” (National Cancer Center, priority 2016, published 2019).

How the values were obtained:
CYP1A2 = experiment: Activity of metabolic enzyme CYP1A2 (Luciferin 1A2 kit) in hepatocytes taken out from transplanted cDNA-uPA/SCID mice; assay type: cell-based, human
Text: After that, cDNA-uPA/SCID mice (2 to 4 M, Male; manufactured by PhoenixBio Co., Inc.) were subjected to laparotomy under isoflurane anesthesia, the spleen was exposed, 0.5×10^5 to 2×10^6 liver progenitor cells per mouse were implanted, and then the abdomen was sutured. On day 73 after implantation, the liver was removed and perfused. Hepatocytes were separated, and cultured for 4 days on 24-well collagen plates (manufactured by IWAKI) at 4×10^5 cells/well using 2% FBS-SHM medium.
(§1) For the hepatocytes taken out from the mice, the activity of the metabolic enzyme CYP1A2 was measured using methanol (MeOH, at a concentration of 1%) and omeprazole (OMP, 50 μM). […] The activities of these metabolic enzymes were measured with Luciferin 1A2 kit and Luciferin-IPA kit from Promega, respectively.

CYP3A4 = tested on: CYP3A4
Protocol: On day 73 after implantation, the liver was removed and perfused. Hepatocytes were separated, and cultured for 4 days on 24-well collagen plates (manufactured by IWAKI) at 4×10^5 cells/well using 2% FBS-SHM medium.
as §1

COc1ccc2[nH]c([S+]([O-])Cc3ncc(C)c(OC)c3C)nc2c1 (stereo not drawn) [omeprazole]
CYP1A2 induction (CYP1A2; Example 14: cells from donor 10 M, omeprazole 50 μM vs methanol 1%): induced | CYP1A2 induction (CYP1A2; Example 15: cells from donor 8 M, as in Example 14): induced

CCC1(c2ccccc2)C(=O)NC(=O)NC1=O [phenobarbital]
CYP3A4 induction (CYP3A4): induced
